Results as given in paper PMC5614982, “Impact of Gastric H^+/K^+-ATPase rs2733743 on the Intragastric pH-Values of Dexlansoprazole Injection in Chinese Subjects” (Frontiers in Pharmacology, 2017).
Marks after values point to notes of the source that are not given here.

Tested on: intragastric pH
Experiment: 24-h intragastric pH monitoring after single intravenous dexlansoprazole in healthy Chinese subjects
Assay type: in vivo, human
Details: 30 mg iv
Description: Dexlansoprazole injection (30 mg per vial) used in the PK and PD study was manufactured by Nanjing Yoko Pharma Co., Ltd. (Nanjing, China). Subjects received an intravenous infusion of 20 or 30 mg dexlansoprazole injection in sterile saline solution (100 mL/h, 60 min). The study drug was administrated with an infusing pump (SA213, Lifepum, Beijing, China) and given through an intravenous catheter in the antecubital vein opposite to the one from which blood samples were taken.
An ambulatory pH recorder (Orion II, MMS, USA) with a disposable pH catheter (VersaFlex, MMS, USA) was used to monitor intragastric pH. The electrode was placed in water for at least 10 min and then calibrated using standard buffer solutions (pH 1.07 and 7.01) before intubation. Both calibration and intubation processes were conducted under the guidance of MMS Virtual Instructor Program. The catheter, trans nasally placed 10 cm under the lower esophageal sphincter, was identified by a sharp decrease in pH (Wang et al., [2010], [2011]). Subjects were intubated on baseline and the day of dosing at about 7:30 a.m., and the intragastric pH data were recorded continuously for 24 h from 8:00 a.m. Intragastric pH was sampled every second, and the data were stored in a MMS Database program (MMS, USA). The PD parameters including Median (pH), Mean (pH), TpH≥3 (%), TpH≥4 (%), TpH≥6 (%), TpH≥6, and AUC^pH−t were analyzed by the MMS Database program.
Median (pH) and mean (pH) were well-investigated in most studies, and the percentage time of pH ≥ 4 (or pH ≥ 4 holding time ratio) was the benchmark for predicting clinical efficacy of PPIs in treating acid-related diseases (Metz et al., [2009]). Novel parameter TpH≥6 (time to first gastric pH ≥ 6, min) and AUCτ 1-τ 2pH-t (area under pH-time curve from τ1 to τ2, pH·s) were defined to evaluate the velocity and extent of pharmacodynamics with more accuracy. All parameters were calculated and compared according to time periods of 0–24, 0–4, 4–10, 10–14, and 14–24 h post dosing.
The parameter AUCτ 1-τ 2pH-t was calculated as follows:
Where t represented the time duration measured by seconds, AUCτ 1-τ 210-t was the area between the pH line = 10 and the pH-time curve, which was generated by the MMS software.
Baseline-adjusted PD parameters were calculated as follows: for example, ΔAUC^pH−t = AUC^pH−t − AUC^pH−tbaseline, ΔMean (pH) = Mean (pH) − Mean (pH)^baseline, and ΔMedian (pH) = Median (pH) − Median (pH)^baseline.

[1] = CYP2C19 EMs, H+/K+-ATPase Het (n = 8), 0–4 h
[2] = CYP2C19 EMs, H+/K+-ATPase Het (n = 8), 0–24 h
[3] = CYP2C19 EMs, H+/K+-ATPase Het (n = 8), 14–24 h
[4] = CYP2C19 EMs, H+/K+-ATPase Hom (n = 7), 0–4 h
[5] = CYP2C19 EMs, H+/K+-ATPase Hom (n = 7), 0–24 h
[6] = CYP2C19 EMs, H+/K+-ATPase Hom (n = 7), 14–24 h

## Cc1c(OCC(F)(F)F)ccnc1C[S@@+]([O-])c1nc2ccccc2[nH]1 [dexlansoprazole]
14–24 h
  TpH≥6(%): 49.2 ± 25.2%
  ΔMean (pH): 2.8 ± 1.4 pH
  ΔMedian (pH): 3.1 ± 1.9 pH
  ΔTpH≥3(%): 60.0 ± 26.0%
  ΔTpH≥4 (%): 54.8 ± 28.3%
  ΔTpH≥6(%): 35.2 ± 25.6%
CYP2C19 EM (n = 11), 0–4 h
  Mean (pH): 5.7 ± 1.6 pH
  Median (pH): 6.2 ± 2.1 pH
  TpH≥3(%): 73.9 ± 21.7%
  TpH≥4(%): 69.3 ± 24.3%
  TpH≥6(%): 58.7 ± 31.9%
  ΔMean (pH): 3.2 ± 1.1 pH
  ΔMedian (pH): 3.9 ± 1.8 pH
  ΔTpH≥3(%): 48.6 ± 24.5%
  ΔTpH≥4 (%): 51.9 ± 17.7%
  ΔTpH≥6(%): 53.0 ± 27.4%
CYP2C19 EM (n = 11), 0–24 h
  Mean (pH): 5.7 ± 1.3 pH
  Median (pH): 5.9 ± 1.7 pH
  TpH≥3(%): 80.0 ± 19.5%
  TpH≥4(%): 73.0 ± 23.2%
  TpH≥6(%): 56.4 ± 24.1%
  ΔMean (pH): 2.8 ± 1.1^c pH
  ΔMedian (pH): 3.7 ± 1.5 pH
  ΔTpH≥3(%): 47.9 ± 20.2^c %
  ΔTpH≥4 (%): 50.4 ± 21.3^c %
  ΔTpH≥6(%): 47.4 ± 19.7^c %
CYP2C19 EM (n = 11), 14–24 h
  Mean (pH): 4.9 ± 1.7 pH
  Median (pH): 4.5 ± 2.0 pH
  TpH≥3(%): 67.5 ± 34.5%
  TpH≥4(%): 56.3 ± 37.2%
  TpH≥6(%): 37.1 ± 25.0^c %
  ΔMean (pH): 2.0 ± 1.2^c pH
  ΔMedian (pH): 2.1 ± 1.8^c pH
  ΔTpH≥3(%): 47.0 ± 27.6^c %
  ΔTpH≥4 (%): 38.6 ± 27.9^c %
  ΔTpH≥6(%): 21.1 ± 18.0^c %
[1]
  Mean (pH): 4.7 ± 2.4 pH
  Median (pH): 4.5 ± 2.8 pH
  TpH≥3(%): 63.7 ± 35.7%
  TpH≥4(%): 56.9 ± 39.3^c %
  TpH≥6(%): 39.4 ± 48.2%
  ΔMean (pH): 2.2 ± 0.8^c pH
  ΔMedian (pH): 1.9 ± 1.0^a^,^c pH
  ΔTpH≥3(%): 36.4 ± 20.1%
  ΔTpH≥4 (%): 35.0 ± 11.7%
  ΔTpH≥6(%): 33.8 ± 39.0%
[2]
  Mean (pH): 5.1 ± 1.7 pH
  Median (pH): 4.9 ± 2.1 pH
  TpH≥3(%): 70.1 ± 26.3%
  TpH≥4(%): 62.9 ± 33.1%
  TpH≥6(%): 48.0 ± 32.5%
  ΔMean (pH): 2.3 ± 0.6^c pH
  ΔMedian (pH): 2.9 ± 1.6 pH
  ΔTpH≥3(%): 40.8 ± 11.1^c %
  ΔTpH≥4 (%): 41.4 ± 17.3^c %
  ΔTpH≥6(%): 37.3 ± 19.1%
[3]
  Mean (pH): 4.1 ± 2.1 pH
  Median (pH): 3.5 ± 2.2 pH
  TpH≥3(%): 53.0 ± 41.0%
  TpH≥4(%): 44.6 ± 48.0%
  TpH≥6(%): 30.2 ± 32.6%
  ΔMean (pH): 1.2 ± 0.4^c pH
  ΔMedian (pH): 0.5 ± 0.5^c pH
  ΔTpH≥3(%): 31.5 ± 13.0^c %
  ΔTpH≥4 (%): 25.1 ± 16.9%
  ΔTpH≥6(%): 11.6 ± 2.9^c %
[4]
  Mean (pH): 6.6 ± 0.5 pH
  Median (pH): 7.8 ± 0.1 pH
  TpH≥3(%): 78.7 ± 10.0%
  TpH≥4(%): 77.1 ± 11.6^b %
  TpH≥6(%): 75.5 ± 12.2%
  ΔMean (pH): 4.3 ± 0.4^b pH
  ΔMedian (pH): 5.9 ± 0.4^b pH
  ΔTpH≥3(%): 62.5 ± 11.6%
  ΔTpH≥4 (%): 67.2 ± 2.4%
  ΔTpH≥6(%): 70.1 ± 4.5%
[5]
  Mean (pH): 6.8 ± 0.2 pH
  Median (pH): 7.5 ± 0.4 pH
  TpH≥3(%): 95.1 ± 1.1%
  TpH≥4(%): 87.9 ± 4.7%
  TpH≥6(%): 73.4 ± 3.7%
  ΔMean (pH): 4.3 ± 0.4^a^,^b pH
  ΔMedian (pH): 5.4 ± 0.3 pH
  ΔTpH≥3(%): 77.4 ± 6.3^a^,^b %
  ΔTpH≥4 (%): 78.0 ± 1.5^a^,^b %
  ΔTpH≥6(%): 68.7 ± 7.9%
[6]
  Mean (pH): 6.2 ± 0.4 pH
  Median (pH): 6.3 ± 1.3 pH
  TpH≥3(%): 96.8 ± 1.2%
  TpH≥4(%): 80.4 ± 6.2%
  TpH≥6(%): 51.5 ± 10.9%
  ΔMean (pH): 3.7 ± 0.5^a^,^b pH
  ΔMedian (pH): 4.2 ± 0.8^b pH
  ΔTpH≥3(%): 83.1 ± 5.9^a^,^b %
  ΔTpH≥4 (%): 72.4 ± 1.5%
  ΔTpH≥6(%): 45.8 ± 17.4^a^,^b %
